Source: the supplement of paper PMC10307832

How the values were obtained:
Assay in all cases: relative viability (nuclei count vs DMSO), 5 days (fraction); higher = more cells survive
Entinostat + Crizotinib = compound: Nc1ccccc1NC(=O)c1ccc(CNC(=O)OCc2cccnc2)cc1 [Entinostat] + C[C@@H](Oc1cc(-c2cnn(C3CCNCC3)c2)cnc1N)c1c(Cl)ccc(F)c1Cl [Crizotinib] (partner 1 µM)
Summary of the method: (§1)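 Five library-drug doses in √10 steps were combined with a fixed anchor-drug dose, or a single drug was given alone, by pin tool to lung cancer cell lines in 1536-well plates the day after seeding. Nuclei were stained and counted after 5 days. Relative viability is the nuclei count in treated wells over that in vehicle wells, taken as the median of duplicate plates.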

[1] = compound: C1COCCN1C2=NC(=NC3=C2OC4=C3C=CC=N4)C5=CC(=CC=C5)NC(=O)C6=CN=C(C=C6)N + Nc1ncn([C@H]2C[C@H](O)[C@@H](CO)O2)c(=O)n1 [Decitabine] (partner 2 µM)
Summary of the method: as §1

Entinostat + Linsitinib = compound: Nc1ccccc1NC(=O)c1ccc(CNC(=O)OCc2cccnc2)cc1 [Entinostat] + C[C@]1(O)C[C@@H](c2nc(-c3ccc4ccc(-c5ccccc5)nc4c3)c3c(N)nccn32)C1 [Linsitinib] (partner 1 µM)
Summary of the method: as §1

SGI-1776 + Olaparib = compound: CN1CCC(CNc2ccc3ncc(-c4cccc(OC(F)(F)F)c4)n3n2)CC1 [SGI-1776] + O=C(c1cc(Cc2n[nH]c(=O)c3ccccc23)ccc1F)N1CCN(C(=O)C2CC2)CC1 [Olaparib] (partner 8 µM)
Summary of the method: as §1

Row | Cell Line | relative viability (Entinostat + Crizotinib; first compound 0.02 µM) | relative viability (Entinostat + Crizotinib; first compound 0.06325 µM) | relative viability (Entinostat + Crizotinib; first compound 0.2 µM) | relative viability (Entinostat + Crizotinib; first compound 0.6325 µM) | relative viability (Entinostat + Crizotinib; first compound 2 µM) | relative viability ([1]; first compound 0.02 µM) | relative viability ([1]; first compound 0.06325 µM) | relative viability ([1]; first compound 0.2 µM) | relative viability ([1]; first compound 0.6325 µM) | relative viability ([1]; first compound 2 µM) | relative viability (Entinostat + Linsitinib; first compound 0.02 µM) | relative viability (Entinostat + Linsitinib; first compound 0.06325 µM) | relative viability (Entinostat + Linsitinib; first compound 0.2 µM) | relative viability (Entinostat + Linsitinib; first compound 0.6325 µM) | relative viability (Entinostat + Linsitinib; first compound 2 µM) | relative viability (SGI-1776 + Olaparib; first compound 0.08 µM) | relative viability (SGI-1776 + Olaparib; first compound 0.8 µM) | relative viability (SGI-1776 + Olaparib; first compound 2.53 µM) | relative viability (SGI-1776 + Olaparib; first compound 8 µM)
1 | LOU-NH91 | 0.705 | 0.754 | 0.757 | 0.742 | 0.678 | 0.792 | 0.843 | 0.822 | 0.794 | 0.746 | 0.911 | 1.02 | 0.95 | 0.816 | 0.714 | 0.968 | 0.986 | 0.957 | 0.773
2 | LU99A | 0.537 | 0.592 | 0.565 | 0.38 | 0.267 | 0.864 | 0.745 | 0.937 | 0.806 | 0.445 | 0.505 | 0.552 | 0.479 | 0.394 | 0.348 | 0.304 | 0.312 | 0.305 | 0.238
3 | LXF-289 | 0.789 | 0.806 | 0.788 | 0.669 | 0.331 | 0.36 | 0.438 | 0.329 | 0.457 | 0.409 | 0.982 | 0.985 | 0.917 | 0.785 | 0.632 | 0.966 | 1.12 | 1.1 | 1.03
4 | NCI-H23 | 0.5 | 0.545 | 0.407 | 0.39 | 0.166 | 0.285 | 0.371 | 0.288 | 0.378 | 0.277 | 0.723 | 0.567 | 0.782 | 0.531 | 0.399 | 0.32 | 0.331 | 0.299 | 0.332
5 | NCI-H322M | 1.03 | 0.961 | 0.98 | 0.809 | 0.651 | 0.708 | 0.64 | 0.695 | 0.69 | 0.64 | 0.885 | 1.04 | 0.883 | 0.89 | 0.65 | 0.871 | 0.772 | 0.812 | 0.697
6 | NCI-H358 | 0.545 | 0.519 | 0.463 | 0.209 | 0.0928 | 0.221 | 0.212 | 0.211 | 0.247 | 0.182 | 0.699 | 0.905 | 0.934 | 0.503 | 0.238 | 0.648 | 0.605 | 0.569 | 0.403
7 | NCI-H441 | 0.715 | 0.744 | 0.523 | 0.215 | 0.181 | 0.23 | 0.298 | 0.27 | 0.326 | 0.248 | 0.483 | 0.494 | 0.524 | 0.262 | 0.13 | 0.569 | 0.521 | 0.608 | 0.491
8 | NCI-H460 | 0.907 | 0.945 | 0.522 | 0.0251 | 0.0158 | 0.55 | 0.563 | 0.517 | 0.525 | 0.195 | 0.664 | 0.685 | 0.378 | 0.0221 | 0.0142 | 0.503 | 0.482 | 0.431 | 0.481
9 | NCI-H520 | 0.735 | 0.613 | 0.779 | 0.413 | 0.251 | 0.47 | 0.521 | 0.588 | 0.55 | 0.44 | 1.03 | 1.05 | 1.09 | 0.897 | 0.412 | 0.36 | 0.318 | 0.386 | 0.203
10 | NCI-H596 | 1 | 0.982 | 0.992 | 0.978 | 0.52 | 0.951 | 0.971 | 1.15 | – | 1.07 | 1.08 | 1.17 | 0.958 | 0.9 | 0.799 | 0.662 | 1 | 0.82 | 0.696
11 | NCI-H647 | 1.1 | 0.966 | 0.749 | 0.301 | 0.102 | 0.524 | 0.478 | 0.527 | 0.519 | 0.325 | 1.23 | 1.14 | 0.932 | 0.327 | 0.121 | 0.67 | 0.484 | 0.438 | 0.206
12 | NCI-H650 | 0.673 | 0.564 | 0.586 | 0.473 | 0.222 | 0.315 | 0.361 | 0.333 | 0.443 | 0.494 | 1.03 | 1.16 | 0.902 | 0.552 | 0.243 | 0.455 | 0.409 | 0.438 | 0.326
13 | NCI-H661 | 0.907 | 0.909 | 1.01 | 0.834 | 0.633 | 0.593 | 0.578 | 0.603 | 0.63 | 0.444 | 0.481 | 0.769 | 0.678 | 0.725 | 0.624 | 0.733 | 0.754 | 0.843 | 0.846
14 | NCI-H727 | 0.765 | 0.731 | 0.693 | 0.628 | 0.342 | 0.884 | 0.851 | 0.785 | 1 | 0.862 | 0.306 | 0.344 | 0.35 | 0.255 | 0.0975 | 0.69 | 0.639 | 0.659 | 0.679
15 | NCI-H838 | 0.995 | 0.818 | 0.949 | 0.536 | 0.229 | 0.437 | 0.437 | 0.413 | 0.5 | 0.371 | 1.11 | 1.1 | 1.11 | 0.594 | 0.279 | 0.776 | 0.754 | 0.695 | 0.56
16 | NCI-H1355 | 1.06 | 1.01 | 0.9 | 0.743 | 0.599 | 0.377 | 0.374 | 0.372 | 0.43 | 0.418 | 0.811 | 0.769 | 0.653 | 0.551 | 0.468 | 0.749 | 0.695 | 0.78 | 0.687
17 | NCI-H1437 | 0.801 | 0.641 | 0.469 | 0.174 | 0.109 | 0.574 | 0.646 | 0.615 | 0.696 | 0.458 | 0.92 | 0.565 | 0.298 | 0.151 | 0.113 | 0.65 | 0.618 | 0.6 | 0.552
